Assay results as given in patent US9304132B2, “Molecular delivery with nanowires” (President and Fellows of Harvard College, priority 2009, dated 2016).

Experiments:
Format in all cases: cell-based
HeLa cells = assay: Apoptosis assay (TUNEL / Annexin V) of HeLa cells on inhibitor-coated Si NWs after actinomycin-D and TNF-α; settings: Si NWs treated with 100 mM inhibitor; actinomycin-D 1 μg/mL, TNF-α 2 ng/mL; cells on uncoated NWs died
Protocol: The silanized Si NWs (produced via CVD prior to silanization) were treated with 100 mM Ac-DEVD-CHO, an apoptosis inhibitor, in PBS at room temperature for 1 hr, and washed in PBS three times for 2 min each. HeLa cells (5×10^4 cells/mL) in DMEM media were added onto the Si NWs, and cultured in a CO2 incubator at 37° C. overnight. The cell treated Si NWs were then transferred into a fresh DMEM media containing actinomycin-D at the final concentration of 1 μg/mL, and incubated in a CO2 incubator at 37° C. for 30 min, followed by addition of TNF-α at the final concentration of 2 ng/mL. After incubation in CO2 incubator at 37° C. for indicated hours, the cells on the Si NWs were assayed for apoptosis.
Cells were analyzed for apoptosis by the Terminal Deoxynucleotide Transferase dUTP Nick End Labeling (TUNEL) assay or by the Annexin V assay. TUNEL staining was performed using the apoptosis detection kit according to the manufacturer's protocol with minor modifications. […] After blocking, streptavidin-Cy3 at 20 μg/mL and WGA Alexa Fluor 488 at 50 μg/mL were incubated with the Si NWs for 30 min at room temperature, and washed in PBC three times for 5 min each, followed by examination under a fluorescence microscope. […] After incubation for 15 min at room temperature and washes in binding buffer three times for 1 min each, cells were analyzed under a fluorescence microscope.

[1] = tested on: neural precursor cells (NPCs); assay: Control over growth and differentiation of neural precursor cells on Ara-C coated Si NWs (immunofluorescence)
Protocol: Si NWs were grown on a Si substrate via CVD. Substrates were first prepared by immobilizing Au nanoparticles on a precleaned Si (111) substrate using a thin polyelectrolyte layer as previously described (J. Am. Chem. Soc. 2008, 130, 6252-6258; Nano Lett. 2004, 4, 1987-1990; J. Am. Chem. Soc. 2001, 123, 9769-9779; J. Am. Chem. Soc. 2008, 130, 6252-6258). Si NWs were then synthesized by the vapor transport method using SiCl4 as the precursor for Si NW growth and H2 (10%) in argon as the carrier gas with minor modifications from that which was previously reported (Nano Lett. 2005, 5, 457-460). Briefly, a Si (111) substrate, covered with Au nanoparticles patterned into stripes by flowing a solution of 70 nm Au nanoparticles across poly-l-lysine coated silicon using PDMS microfluidic channels, was placed inside a 1″ diameter quartz tube and loaded at the center of a 12″ horizontal tube furnace (Lindberg/Blue M). After the quartz tube was evacuated and flushed repeatedly with H2 (10%) in argon gas mixture to minimize oxygen contamination, it was charged with H2 (10%) in argon gas up to 760 torr and the pump line was quickly replaced with a line that enabled venting through a bubbler filled with a saturated K2CO3 aqueous solution, meant to trap the byproduct of SiCl4 decomposition, gaseous HCl. […]

[2] = tested on: Mouse embryonic stem cells (mES cells); assay: Si NW delivery into mouse embryonic stem cells; settings: delivered by Si NWs
Protocol: Mouse embryonic stem cells (mES cells) were also used in this study. Delivery of molecules (including Cre Recombinase proteins) into mES cells was carried out in a manner similar to that described in Example 3.

Molecule: Ac-DEVD-CHO
- cell survival after apoptosis induction (HeLa cells): survived

Molecule: Nc1ccn([C@@H]2O[C@H](CO)[C@@H](O)[C@@H]2O)c(=O)n1 [Ara-C, Cytarabine]
- proliferation of glial-like cell plated atop Ara-C coated NWs ([1]; Ara-C 1 mg/mL, 5 uL coated on silanized CVD Si NWs, examined on sixth day): survived but did not proliferate
- cell type mixture in regions containing NWs ([1]; Ara-C coated NWs, regions without NWs showed only mitotic cell types, sixth day): neuron heavy

B1: Cre Recombinase proteins: Cre Recombinase proteins delivered by Si NWs into mES cells (protein, UniProt P06956 1-343, looked up)
Recombinase cre: MSNLLTVHQNLPALPVDATSDEVRKNLMDMFRDRQAFSEHTWKMLLSVCRSWAAWCKLNNRKWFPAEPEDVRDYLLYLQARGLAVKTIQQHLGQLNMLHRRSGLPRPSDSNAVSLVMRRIRKENVDAGERAKQALAFERTDFDQVRSLMENSDRCQDIRNLAFLGIAYNTLLRIAEIARIRVKDISRTDGGRMLIHIGRTKTLVSTAGVEKALSLGVTKLVERWISVSGVADDPNNYLFCRVRKNGVAAPSATSQLSTRALEGIFEATHRLIYGAKDDSGQRYLAWSGHSARVGAARDMARAGVSIPEIMQAGGWTNVNIVMNYIRNLDSETGAMVRLLEDGD
- EGFP expression in transgenic foxed-eGFP mES cells [2]: expressed EGFP
